Source: the supplement of paper PMC10307832

Key:
Assay in all cases: relative viability (nuclei count vs DMSO), 5 days (fraction); higher = more cells survive
201T = system: 201T
Procedure, shortened: (§1)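 Dosing by pin tool came one day after lung cancer cell lines were seeded in 1536-well plates, using either one drug or a fixed anchor-drug dose plus five library-drug doses (not always all listed) in √10 steps. After 5 days, nuclei were counted on 4× images. Relative viability is treated-well nuclei count divided by vehicle-well nuclei count, and values are medians of duplicate plates.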

ABC-1 = system: ABC-1
Procedure, shortened: as §1

COR-L23 = system: COR-L23
Procedure, shortened: as §1

EKVX = system: EKVX
Procedure, shortened: as §1

EPLC-272H = system: EPLC-272H
Procedure, shortened: as §1

HCC-44 = system: HCC-44
Procedure, shortened: as §1

LOU-NH91 = system: LOU-NH91
Procedure, shortened: as §1

NCI-H1650 = system: NCI-H1650
Procedure, shortened: as §1

NCI-H1734 = system: NCI-H1734
Procedure, shortened: as §1

NCI-H1793 = system: NCI-H1793
Procedure, shortened: as §1

NCI-H1993 = system: NCI-H1993
Procedure, shortened: as §1

NCI-H2023 = system: NCI-H2023
Procedure, shortened: as §1

Clc1ccc(Nc2nnc(Cc3ccncc3)c3ccccc23)cc1 [Vatalanib] + O=C(c1cc(Cc2n[nH]c(=O)c3ccccc23)ccc1F)N1CCN(C(=O)C2CC2)CC1 [Olaparib] (partner 8 µM)
relative viability (201T; first compound 0.04 µM): 0.833
relative viability (201T; first compound 0.1265 µM): 0.83
relative viability (201T; first compound 0.4 µM): 0.904
relative viability (201T; first compound 1.265 µM): 0.842
relative viability (201T; first compound 4 µM): 0.83
relative viability (ABC-1; first compound 0.04 µM): 0.642
relative viability (ABC-1; first compound 0.1265 µM): 0.689
relative viability (ABC-1; first compound 0.4 µM): 0.421
relative viability (ABC-1; first compound 4 µM): 0.869
relative viability (COR-L23; first compound 0.04 µM): 0.363
relative viability (COR-L23; first compound 0.1265 µM): 0.356
relative viability (COR-L23; first compound 0.4 µM): 0.402
relative viability (COR-L23; first compound 1.265 µM): 0.337
relative viability (COR-L23; first compound 4 µM): 0.345
relative viability (EKVX; first compound 0.04 µM): 0.955
relative viability (EKVX; first compound 0.1265 µM): 0.885
relative viability (EKVX; first compound 0.4 µM): 0.851
relative viability (EKVX; first compound 1.265 µM): 0.66
relative viability (EKVX; first compound 4 µM): 0.756
relative viability (EPLC-272H; first compound 0.04 µM): 0.944
relative viability (EPLC-272H; first compound 0.1265 µM): 0.79
relative viability (EPLC-272H; first compound 0.4 µM): 1.04
relative viability (EPLC-272H; first compound 1.265 µM): 0.688
relative viability (EPLC-272H; first compound 4 µM): 0.86
relative viability (HCC-44; first compound 0.04 µM): 1.05
relative viability (HCC-44; first compound 0.1265 µM): 0.971
relative viability (HCC-44; first compound 0.4 µM): 0.978
relative viability (HCC-44; first compound 1.265 µM): 0.998
relative viability (HCC-44; first compound 4 µM): 0.996
relative viability (LOU-NH91; first compound 0.04 µM): 0.912
relative viability (LOU-NH91; first compound 0.1265 µM): 0.886
relative viability (LOU-NH91; first compound 0.4 µM): 0.793
relative viability (LOU-NH91; first compound 1.265 µM): 0.881
relative viability (LOU-NH91; first compound 4 µM): 0.875
relative viability (NCI-H1650; first compound 0.04 µM): 0.985
relative viability (NCI-H1650; first compound 0.1265 µM): 0.734
relative viability (NCI-H1650; first compound 0.4 µM): 0.852
relative viability (NCI-H1650; first compound 1.265 µM): 0.74
relative viability (NCI-H1650; first compound 4 µM): 0.798
relative viability (NCI-H1734; first compound 0.04 µM): 0.64
relative viability (NCI-H1734; first compound 0.1265 µM): 0.582
relative viability (NCI-H1734; first compound 0.4 µM): 0.621
relative viability (NCI-H1734; first compound 1.265 µM): 0.609
relative viability (NCI-H1734; first compound 4 µM): 0.617
relative viability (NCI-H1793; first compound 0.04 µM): 0.871
relative viability (NCI-H1793; first compound 0.1265 µM): 0.713
relative viability (NCI-H1793; first compound 0.4 µM): 1.02
relative viability (NCI-H1793; first compound 1.265 µM): 0.788
relative viability (NCI-H1793; first compound 4 µM): 0.78
relative viability (NCI-H1993; first compound 0.04 µM): 0.587
relative viability (NCI-H1993; first compound 0.1265 µM): 1.08
relative viability (NCI-H1993; first compound 0.4 µM): 0.879
relative viability (NCI-H1993; first compound 1.265 µM): 1.11
relative viability (NCI-H1993; first compound 4 µM): 1.01
relative viability (NCI-H2023; first compound 0.04 µM): 0.403
relative viability (NCI-H2023; first compound 0.1265 µM): 0.444
